Test results published in ChEMBL document CHEMBL4024712, “Synthesis, stability and mechanistic studies of potent anticryptococcal hexapeptides” (Eur J Med Chem, 2017).
≈ marks a conversion by molar mass, not a printed value. Calls of active or inactive are those of the source. No cut-off for these calls is given here. Non-standard residues stand in square brackets, D forms with d. Residues, ends and D or L forms follow the SMILES beside them. His(τ-Bzl) = N[C@@H](Cc1cn(Cc2ccccc2)cn1)C(=O)O; Phe(4-NH2) = Nc1ccc(C[C@H](N)C(=O)O)cc1; Phe(4-Me) = Cc1ccc(C[C@H](N)C(=O)O)cc1; 1Nal = N[C@@H](Cc1cccc2ccccc12)C(=O)O; Bta = N[C@@H](Cc1csc2ccccc12)C(=O)O; Cha = N[C@@H](CC1CCCCC1)C(=O)O; Orn = NCCC[C@H](N)C(=O)O

Tests used:
Cryptococcus neoformans [1] = assay: Antifungal activity against Cryptococcus neoformans ATCC 90113 after 68 to 72 hrs by Alamar blue assay; assay type: functional
Pichia kudriavzevii [2] = assay: Antifungal activity against Candida krusei ATCC 6258 after 18 to 24 hrs by Alamar blue assay; assay type: functional
Vero = assay: Cytotoxicity against African green monkey Vero cells up to 10 ug/ml after 48 hrs by neutral red dye based assay; assay type: cell-based; details: chlorocebus sabaeus
Nakaseomyces glabratus [3] = assay: Antifungal activity against Candida glabrata ATCC 90030 after 18 to 24 hrs by Alamar blue assay; assay type: functional
Pseudomonas aeruginosa = assay: Anti-bacterial activity against Pseudomonas aeruginosa ATCC 27853 by CLSI method; assay type: functional
Nakaseomyces glabratus [4] = assay: Fungicidal activity against Candida glabrata ATCC 90030 after 18 to 24 hrs by Alamar blue assay; assay type: functional
Staphylococcus aureus [5] = assay: Anti-bacterial activity against Staphylococcus aureus ATCC 29213 by CLSI method; assay type: functional
[6] = tested on: Mycobacterium intracellulare; assay: Anti-bacterial activity against Mycobacterium intracellulare ATCC 23068 after 68 to 72 hrs by Alamar blue assay; assay type: functional, cell-based
Staphylococcus aureus [7] = assay: Anti-bacterial activity against methicillin-resistant Staphylococcus aureus ATCC 33591 by CLSI method; assay type: functional
Candida albicans [8] = assay: Antifungal activity against Candida albicans ATCC 90028 after 18 to 24 hrs by Alamar blue assay; assay type: functional; details: for MIC: Candida albicans, ATCC 90028
Candida albicans [9] = assay: Fungicidal activity against Candida albicans ATCC 90028 after 18 to 24 hrs by Alamar blue assay; assay type: functional
Staphylococcus aureus [10] = assay: Bactericidal activity against methicillin-resistant Staphylococcus aureus ATCC 33591 by CLSI method; assay type: functional
Staphylococcus aureus [11] = assay: Bactericidal activity against Staphylococcus aureus ATCC 29213 by CLSI method; assay type: functional
Aspergillus fumigatus [12] = assay: Fungicidal activity against Aspergillus fumigatus ATCC 90906 after 68 to 72 hrs by Alamar blue assay; assay type: functional
Cryptococcus neoformans [13] = assay: Fungicidal activity against Cryptococcus neoformans ATCC 90113 after 68 to 72 hrs by Alamar blue assay; assay type: functional
Pichia kudriavzevii [14] = assay: Fungicidal activity against Candida krusei ATCC 6258 after 18 to 24 hrs by Alamar blue assay; assay type: functional
Escherichia coli [15] = assay: Bactericidal activity against Escherichia coli ATCC 35218 by CLSI method; assay type: functional
Aspergillus fumigatus [16] = assay: Antifungal activity against Aspergillus fumigatus ATCC 90906 after 68 to 72 hrs by Alamar blue assay; assay type: functional
Escherichia coli [17] = assay: Anti-bacterial activity against Escherichia coli ATCC 35218 by CLSI method; assay type: functional; details: Escherichia coli, ATCC 35218; for IC50: read-out: IC50
Lipid bilayer [18] = assay: Binding affinity to EYPC/cholesterol small unilamellar vesicles at 0.1 uM by tryptophan fluorescence quenching assay; assay type: ADME
[19] = Selectivity index ratio of cytotoxic concentration against African green monkey Vero cells to IC50 for Cryptococcus neoformans ATCC 90113; assay type: toxicity; details: read-out: Selectivity Index
Lipid bilayer [20] = assay: Binding affinity to EYPC/EYPG small unilamellar vesicles at 0.1 uM by tryptophan fluorescence quenching assay
[21] = Proteolytic stability assessed as trypsin (unknown origin)-mediated compound hydrolysis at compound to trypsin ratio of 0.5 to […] measured after 24 hrs by RP-HPLC method; assay type: ADME; details: human
Cryptococcus neoformans [22] = assay: Induction of cell lysis in Cryptococcus neoformans ATCC 90113 biofilm assessed as loss of cell wall at MIC after 1 hr by photungstic acid/ammonium molybdate/uranyl acetatebased scanning based transmission electron microscopic method; assay type: functional
Cryptococcus neoformans [23] = assay: Induction of cell lysis in Cryptococcus neoformans ATCC 90113 biofilm assessed as corrugated cells at MIC after 1 hr by osmium tetroxide staining based scanning electron microscopic method; assay type: functional
Cryptococcus neoformans [24] = assay: Induction of cell lysis in Cryptococcus neoformans ATCC 90113 biofilm assessed as cell perturbation at MIC after 1 hr by osmium tetroxide staining based scanning electron microscopic method; assay type: functional
[25] = Nakaseomyces glabratus, ATCC 90030
[26] = Staphylococcus aureus, ATCC 29213
[27] = Staphylococcus aureus, ATCC 33591
[28] = Pichia kudriavzevii, ATCC 6258, read-out: IC50
[29] = Aspergillus fumigatus, ATCC 90906

Structure (SMILES)	MIC (Cryptococcus neoformans [1]) [µg/mL]	MIC (Pichia kudriavzevii [2]; Pichia kudriavzevii, ATCC 6258) [µg/mL]	Activity (Vero)	MIC (Nakaseomyces glabratus [3]; [25]) [µg/mL]	IC50 (Pseudomonas aeruginosa)	MFC (Nakaseomyces glabratus [4]) [µg/mL]	MIC (Staphylococcus aureus [5]; [26]) [µg/mL]	IC50 [6]	MIC (Staphylococcus aureus [7]; [27]) [µg/mL]	MIC (Candida albicans [8]) [µg/mL]	MFC (Candida albicans [9]) [µg/mL]	MBC (Staphylococcus aureus [10]) [µg/mL]	MBC (Staphylococcus aureus [11]) [µg/mL]	MFC (Aspergillus fumigatus [12]) [µg/mL]	MFC (Cryptococcus neoformans [13]) [µg/mL]	IC50 (Pichia kudriavzevii [2]; [28]) [µg/mL]	MFC (Pichia kudriavzevii [14]) [µg/mL]	MBC (Escherichia coli [15]) [µg/mL]	IC50 (Escherichia coli [17]) [µg/mL]	IC50 (Nakaseomyces glabratus [3])	also measured
NCCC[C@H](N)C(=O)N[C@H](Cc1c[nH]c2ccccc12)C(=O)N[C@@H](CC1CCCCC1)C(=O)N[C@@H](Cc1cccc2ccccc12)C(=O)N[C@H](Cc1ccccc1)C(=O)N[C@@H](Cc1cn(Cc2ccccc2)cn1)C(N)=O (H-[Orn][dW][Cha][1Nal][dF][His(τ-Bzl)]-NH2)	2.5 (≈ 2.4 µM)	10 (≈ 9.59 µM)	Non-Toxic	20 (≈ 19.2 µM)	Not Active	20 (≈ 19.2 µM)	10 (≈ 9.59 µM)	Not Active	10 (≈ 9.59 µM)	20 (≈ 19.2 µM)	20 (≈ 19.2 µM)	20 (≈ 19.2 µM)	10 (≈ 9.59 µM)	20 (≈ 19.2 µM)	–	–	–	–	–	–	–
NCCC[C@H](N)C(=O)N[C@H](Cc1c[nH]c2ccccc12)C(=O)N[C@@H](CC1CCCCC1)C(=O)N[C@@H](Cc1csc2ccccc12)C(=O)N[C@H](Cc1ccccc1)C(=O)N[C@@H](Cc1cn(Cc2ccccc2)cn1)C(N)=O (H-[Orn][dW][Cha][Bta][dF][His(τ-Bzl)]-NH2)	–	10 (≈ 9.54 µM)	Non-Toxic	10 (≈ 9.54 µM)	–	10 (≈ 9.54 µM)	–	Not Active	10 (≈ 9.54 µM)	10 (≈ 9.54 µM)	–	20 (≈ 19.1 µM)	10 (≈ 9.54 µM)	10 (≈ 9.54 µM)	1.25 (≈ 1.19 µM)	6.51 (≈ 6.21 µM)	10 (≈ 9.54 µM)	20 (≈ 19.1 µM)	–	–	MIC (Aspergillus fumigatus [16]; [29]): 10 µg/mL (≈ 9.54 µM)
NCCC[C@H](N)C(=O)N[C@H](Cc1c[nH]c2ccccc12)C(=O)N[C@@H](CC1CCCCC1)C(=O)N[C@@H](CC1CCCCC1)C(=O)N[C@H](Cc1ccccc1)C(=O)N[C@@H](Cc1cn(Cc2ccccc2)cn1)C(N)=O (H-[Orn][dW][Cha][Cha][dF][His(τ-Bzl)]-NH2)	1.25 (≈ 1.25 µM)	10 (≈ 10 µM)	Non-Toxic	–	Not Active	–	10 (≈ 10 µM)	–	–	10 (≈ 10 µM)	10 (≈ 10 µM)	20 (≈ 20 µM)	–	20 (≈ 20 µM)	–	–	10 (≈ 10 µM)	20 (≈ 20 µM)	10 (≈ 10 µM)	Not Active	MIC (Escherichia coli [17]): 20 µg/mL (≈ 20 µM); MIC (Aspergillus fumigatus [16]; [29]): 20 µg/mL (≈ 20 µM)
Cc1ccc(C[C@H](NC(=O)[C@@H](Cc2ccccc2)NC(=O)[C@@H](Cc2c[nH]c3ccccc23)NC(=O)[C@@H](N)CCCN)C(=O)N[C@H](Cc2ccccc2)C(=O)N[C@@H](CCCN)C(N)=O)cc1 (H-[Orn][dW][dF][Phe(4-Me)][dF][Orn]-NH2)	0.63 (≈ 0.71 µM)	20 (≈ 22.5 µM)	Non-Toxic	–	Not Active	–	–	Not Active	–	–	–	–	–	–	0.63 (≈ 0.71 µM)	15.5 (≈ 17.5 µM)	20 (≈ 22.5 µM)	–	16.5 (≈ 18.6 µM)	Not Active	IC50 (Cryptococcus neoformans [1]): 0.46 µg/mL (≈ 0.519 µM); Activity (Lipid bilayer [18]): Non-Toxic; selectivity ratio [19]: 21 to 25; Activity (Lipid bilayer [20]): Active; IC50 (Aspergillus fumigatus [16]): Not Active; IC50 (Staphylococcus aureus [5]): Not Active; IC50 (Staphylococcus aureus [7]): Not Active; IC50 (Candida albicans [8]): Not Active; Stability [21]: Stable
Cc1ccc(C[C@H](NC(=O)[C@@H](Cc2ccccc2)NC(=O)[C@@H](Cc2c[nH]c3ccccc23)NC(=O)[C@@H](N)CCCN)C(=O)N[C@H](Cc2ccccc2)C(=O)N[C@@H](Cc2ccc(N)cc2)C(N)=O)cc1 (H-[Orn][dW][dF][Phe(4-Me)][dF][Phe(4-NH2)]-NH2)	5 (≈ 5.35 µM)	–	Non-Toxic	–	Not Active	–	–	Not Active	–	–	–	–	–	–	5 (≈ 5.35 µM)	–	–	–	19.5 (≈ 20.9 µM)	Not Active	Activity (Cryptococcus neoformans [22]): Active; IC50 (Cryptococcus neoformans [1]): 4.73 µg/mL (≈ 5.06 µM); Activity (Cryptococcus neoformans [23]): Active; IC50 (Pichia kudriavzevii [2]): Not Active; Activity (Lipid bilayer [18]): Non-Toxic; Activity (Lipid bilayer [20]): Active; IC50 (Aspergillus fumigatus [16]): Not Active; IC50 (Staphylococcus aureus [5]; Staphylococcus aureus, ATCC 29213, read-out: IC50): > 20 µg/mL; IC50 (Staphylococcus aureus [7]; Staphylococcus aureus, ATCC 33591, read-out: IC50): > 20 µg/mL; IC50 (Candida albicans [8]): Not Active; Activity (Cryptococcus neoformans [24]): Active
C[C@@H]1[C@H](O)[C@@H](C)/C=C/C=C/C=C/C=C/C=C/C=C/C=C/[C@H](O[C@@H]2O[C@H](C)[C@@H](O)[C@H](N)[C@@H]2O)C[C@@H]2O[C@](O)(C[C@@H](O)C[C@@H](O)[C@H](O)CC[C@@H](O)C[C@@H](O)CC(=O)O[C@H]1C)C[C@H](O)[C@H]2C(=O)O [AMPHOTERICIN B]	–	–	–	0.63 (≈ 0.682 µM)	–	–	–	–	–	–	–	–	–	5 (≈ 5.41 µM)	–	–	–	–	–	–	IC50 (Nakaseomyces glabratus [3]; Nakaseomyces glabratus, ATCC 90030, read-out: IC50): 0.34 µg/mL (≈ 0.368 µM); IC50 (Aspergillus fumigatus [16]; Aspergillus fumigatus, ATCC 90906, read-out: IC50): 1.2 µg/mL (≈ 1.3 µM)
